Experimental data as given in the NIST ThermoML archive (doi:10.1016/j.tca.2015.06.017).

Assay: xn = mol fraction of the nth substance listed
Conditions: Liquid, Vibrating tube method

CCC(C)Cl (stereo not drawn) [2-chlorobutane] + CCCCCCC
mass density [kg/m3]
Conditions	283.15 K	293.15 K	298.15 K
100 kPa, x2 = 0.0524	870.08	859.09	853.5
100 kPa, x2 = 0.1018	857.33	846.5	841
100 kPa, x2 = 0.1968	834.23	823.7	818.39
100 kPa, x2 = 0.3006	810.89	800.7	795.55
100 kPa, x2 = 0.4029	789.62	779.7	774.75
100 kPa, x2 = 0.5017	770.58	760.98	756.09
100 kPa, x2 = 0.6008	752.78	743.44	738.72
100 kPa, x2 = 0.7023	735.82	726.75	722.14
100 kPa, x2 = 0.7977	720.94	712.09	707.68
100 kPa, x2 = 0.8986	706.28	697.66	693.37
100 kPa, x2 = 0.952	698.95	690.45	686.19
2000 kPa, x2 = 0.0524	872.12	861.28	855.76
2000 kPa, x2 = 0.1018	859.33	848.65	843.26
2000 kPa, x2 = 0.1968	836.28	825.79	820.66
2000 kPa, x2 = 0.3006	812.93	802.72	797.76
2000 kPa, x2 = 0.4029	791.64	781.78	776.96
2000 kPa, x2 = 0.5017	772.59	763.02	758.28
2000 kPa, x2 = 0.6008	754.76	745.47	740.85
2000 kPa, x2 = 0.7023	737.76	728.77	724.29
2000 kPa, x2 = 0.7977	722.86	714.07	709.77
2000 kPa, x2 = 0.8986	708.14	699.64	695.44
2000 kPa, x2 = 0.952	700.89	692.42	688.29
5000 kPa, x2 = 0.0524	875.14	864.55	859.07
5000 kPa, x2 = 0.1018	862.34	851.88	846.59
5000 kPa, x2 = 0.1968	839.19	828.97	823.96
5000 kPa, x2 = 0.3006	815.75	805.92	800.99
5000 kPa, x2 = 0.4029	794.46	784.93	780.1
5000 kPa, x2 = 0.5017	775.35	766.08	761.4
5000 kPa, x2 = 0.6008	757.49	748.48	743.93
5000 kPa, x2 = 0.7023	740.41	731.73	727.26
5000 kPa, x2 = 0.7977	725.51	716.99	712.67
5000 kPa, x2 = 0.8986	710.74	702.52	698.28
5000 kPa, x2 = 0.952	703.44	695.28	691.09
7000 kPa, x2 = 0.0524	877.15	866.63	861.28
7000 kPa, x2 = 0.1018	864.31	853.99	848.7
7000 kPa, x2 = 0.1968	841.13	831.06	826.06
7000 kPa, x2 = 0.3006	817.66	807.98	803.03
7000 kPa, x2 = 0.4029	796.31	786.88	782.16
7000 kPa, x2 = 0.5017	777.21	768.04	763.43
7000 kPa, x2 = 0.6008	759.32	750.4	745.91
7000 kPa, x2 = 0.7023	742.22	733.58	729.24
7000 kPa, x2 = 0.7977	727.32	718.82	714.61
7000 kPa, x2 = 0.8986	712.5	704.3	700.19
7000 kPa, x2 = 0.952	705.2	697.05	692.99
10000 kPa, x2 = 0.0524	880.01	869.74	864.5
10000 kPa, x2 = 0.1018	867.16	857.1	851.96
10000 kPa, x2 = 0.1968	844.01	834.15	829.21
10000 kPa, x2 = 0.3006	820.49	810.94	806.14
10000 kPa, x2 = 0.4029	799.08	789.81	785.11
10000 kPa, x2 = 0.5017	779.9	770.91	766.31
10000 kPa, x2 = 0.6008	761.96	753.22	748.74
10000 kPa, x2 = 0.7023	744.79	736.37	731.99
10000 kPa, x2 = 0.7977	729.85	721.59	717.31
10000 kPa, x2 = 0.8986	714.98	707.02	702.79
10000 kPa, x2 = 0.952	707.64	699.74	695.56
20000 kPa, x2 = 0.0524	889.1	879.38	874.44
20000 kPa, x2 = 0.1018	876.16	866.54	861.8
20000 kPa, x2 = 0.1968	852.83	843.5	838.93
20000 kPa, x2 = 0.3006	829.21	820.12	815.63
20000 kPa, x2 = 0.4029	807.66	798.87	794.49
20000 kPa, x2 = 0.5017	788.35	779.78	775.52
20000 kPa, x2 = 0.6008	770.29	761.93	757.79
20000 kPa, x2 = 0.7023	753.01	744.92	740.82
20000 kPa, x2 = 0.7977	737.95	730	726.04
20000 kPa, x2 = 0.8986	722.98	715.31	711.31
20000 kPa, x2 = 0.952	715.57	707.96	704.04
30000 kPa, x2 = 0.0524	897.39	888.05	883.44
30000 kPa, x2 = 0.1018	884.45	875.23	870.7
30000 kPa, x2 = 0.1968	860.93	852.05	847.61
30000 kPa, x2 = 0.3006	837.18	828.48	824.28
30000 kPa, x2 = 0.4029	815.5	807.16	802.95
30000 kPa, x2 = 0.5017	796.06	787.91	783.76
30000 kPa, x2 = 0.6008	777.85	769.94	765.87
30000 kPa, x2 = 0.7023	760.42	752.73	748.83
30000 kPa, x2 = 0.7977	745.22	737.68	733.86
30000 kPa, x2 = 0.8986	730.14	722.85	719
30000 kPa, x2 = 0.952	722.65	715.45	711.62
40000 kPa, x2 = 0.0524	905.09	896.17	891.7
40000 kPa, x2 = 0.1018	892.06	883.24	878.82
40000 kPa, x2 = 0.1968	868.43	859.99	855.64
40000 kPa, x2 = 0.3006	844.52	836.22	832.09
40000 kPa, x2 = 0.4029	822.78	814.71	810.61
40000 kPa, x2 = 0.5017	803.2	795.32	791.32
40000 kPa, x2 = 0.6008	784.86	777.21	773.3
40000 kPa, x2 = 0.7023	767.33	759.89	756.08
40000 kPa, x2 = 0.7977	751.95	744.68	741.01
40000 kPa, x2 = 0.8986	736.77	729.72	726.09
40000 kPa, x2 = 0.952	729.23	722.25	718.59
50000 kPa, x2 = 0.0524	912.23	903.66	899.36
50000 kPa, x2 = 0.1018	899.1	890.68	886.42
50000 kPa, x2 = 0.1968	875.41	867.25	863
50000 kPa, x2 = 0.3006	851.37	843.41	839.43
50000 kPa, x2 = 0.4029	829.44	821.7	817.84
50000 kPa, x2 = 0.5017	809.74	802.25	798.42
50000 kPa, x2 = 0.6008	791.3	784.01	780.24
50000 kPa, x2 = 0.7023	773.63	766.55	762.91
50000 kPa, x2 = 0.7977	758.16	751.26	747.7
50000 kPa, x2 = 0.8986	742.88	736.16	732.64
50000 kPa, x2 = 0.952	735.27	728.63	725.09
60000 kPa, x2 = 0.0524	918.92	910.6	906.5
60000 kPa, x2 = 0.1018	905.75	897.63	893.49
60000 kPa, x2 = 0.1968	881.9	874.05	870.05
60000 kPa, x2 = 0.3006	857.83	850.18	846.26
60000 kPa, x2 = 0.4029	835.76	828.39	824.58
60000 kPa, x2 = 0.5017	816	808.8	805.08
60000 kPa, x2 = 0.6008	797.44	790.44	786.84
60000 kPa, x2 = 0.7023	779.67	772.89	769.41
60000 kPa, x2 = 0.7977	764.09	757.51	754.11
60000 kPa, x2 = 0.8986	748.68	742.26	738.96
60000 kPa, x2 = 0.952	741.04	734.67	731.32
65000 kPa, x2 = 0.0524	922.13	913.94	909.89
65000 kPa, x2 = 0.1018	908.95	900.93	896.87
65000 kPa, x2 = 0.1968	885.12	877.31	873.4
65000 kPa, x2 = 0.3006	860.95	853.35	849.57
65000 kPa, x2 = 0.4029	838.88	831.52	827.86
65000 kPa, x2 = 0.5017	819	811.84	808.29
65000 kPa, x2 = 0.6008	800.38	793.41	789.99
65000 kPa, x2 = 0.7023	782.58	775.8	772.52
65000 kPa, x2 = 0.7977	766.97	760.33	757.18
65000 kPa, x2 = 0.8986	751.48	745.06	741.94
65000 kPa, x2 = 0.952	743.76	737.4	734.28
